The subject of one series is B. cereus ATCC11778. As to the kind of experiment: Micro-broth dilution and drop plate antimicrobial susceptibility test. Type of series: cell-based, Bacillus cereus. As for the experimental part: (§1) In a sterile 96-well plate, serial dilutions were made with the test substance to final volume of 50 μl. Inoculum was then prepared in Mueller-Hinton broth to 0.5 McFarland and diluted before adding 50 μl to the well to make ∼1x10^5 CFU/ml. The culture plate was incubated at 35 °C for 20-24 hrs. A positive growth control and sterility wells were also prepared along with the culture wells. Absorbance at OD600 was taken using BMG Labtech SPECTROstar Omega spectrophotometer. MIC is determined by the lowest concentration without growth. IC50 is determined from plotting a dose-response curve, see Data Analysis below. To determine the MBC, using a multi-channel pipette, 1 μl of culture broth was taken from the same 96-well microdilution growth plate and carefully inoculated on surface of MH agar plate. The plate is then incubated for additional 20 hrs. at 35 °C. The MBC value is the lowest concentration without observed growth on the agar.

The test system of the next series is E. coli ATCC25922. The series is described as above. Type of series: cell-based. The conditions noted are these: Escherichia coli. As for the experimental part:
as §1

In the next series the test system is P. aeruginosa ATCC27853. The description is as above. Type of series: cell-based. The note with it: Pseudomonas aeruginosa. As for the experimental part: as §1
Another series relates to S. aureus ATCC29219. Described as above. Type of series: cell-based. The conditions noted are these: Staphylococcus aureus. As for the experimental part: as §1
Series [1] has as its system Mtb-infected J774A.1 macrophages. As to the kind of experiment: Efficacy against Mtb growing in infected macrophages. The note with it: J774A.1 macrophages treated 3 or 7 days.
The next series addresses T1, DPAGT1 (Homo sapiens, UniProt Q9H3H5).
T1 construct: H. sapiens DPAGT1 (1-408, N-terminal 6 x HIS tag, TEV cleavage site); 6xHis purification tag with TEV site (N, cleaved yes); made in house; host or cells: Spodoptera frugiperda Sf9 insect cells (baculovirus)
T1 sequence (Q9H3H5 1-408): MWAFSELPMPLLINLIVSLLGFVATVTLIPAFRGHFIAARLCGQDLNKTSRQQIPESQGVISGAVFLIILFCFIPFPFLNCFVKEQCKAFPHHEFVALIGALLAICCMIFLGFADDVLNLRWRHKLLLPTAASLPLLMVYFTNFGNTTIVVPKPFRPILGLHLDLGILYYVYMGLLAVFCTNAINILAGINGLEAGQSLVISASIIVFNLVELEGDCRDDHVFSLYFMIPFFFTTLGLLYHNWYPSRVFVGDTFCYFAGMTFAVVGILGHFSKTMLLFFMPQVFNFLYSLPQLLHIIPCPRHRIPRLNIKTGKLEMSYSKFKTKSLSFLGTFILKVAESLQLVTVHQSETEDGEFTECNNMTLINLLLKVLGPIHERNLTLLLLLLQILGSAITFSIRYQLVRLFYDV
The series can be described thus: Radiolabeled substrate enzyme activity assay. Type of series: biochemical, H. sapiens. The protocol:
2 μl of 2 μM DPAGT1 WT or mutant proteins in GFB buffer supplemented with 5mM extra MgCl2, 1% OGNG/CHS/cardiolipin and dolichyl monophosphate was combined with 2 μl of UDP-N-acetyl [1-14C] […] The reaction was terminated by the addition of 6 μl of 100% methanol and immediately transferred onto ice. 1 μl of sample was spotted onto a silica coated TLC plate in triplicate and run with a mobile phase consisting of chloroform, methanol, and water at a 65:25:4 ratio respectively. After the run, the TLC plate was dried thoroughly, wrapped in cling film, incubated with a phosphor imaging substrate for 4 days, then phosphor imaged using a Biorad. The pixel density of the spots corresponding to the hydrophobic product was divided by combined pixel density of the product and the substrate and multiplied by the known concentration of substrate added to ascertain the amount of product formed.

The test system of a further series is HepG2 cells. The series can be described thus: Cell proliferation assay (MTS). Type of series: cell-based, human. The protocol:
(§2) In sterile 96-well plate, each well was seeded with ∼1x10^5 cells. The cells are then grown confluent overnight in 100 μl DMEM with 10% FBS. The medium is replenished with DMEM with 2% FBS and added vehicle control or test substance the next day. For test substance in methanol, stock was added to 25 μl of DMEM with 2% FBS or PBS and placed in the laminar flow hood to let the methanol evaporate (about 1-3 hrs). Once the methanol has evaporated, DMEM with 2% FBS was added to final volume of 100 μl of desired test concentration. […] Cells are grown for additional 24 hrs. The cell viability was determined by using Promega CellTiter 96^© AQueous One Solution Cell Proliferation Assay (3-(4,5-dimethylthiazol-2-yl)-5-(3-carboxymethoxyphenyl)-2-(4-sulfophenyl)-2H-tetrazolium, inner salt; MTS) System following the manufacture protocol.

For a further series, the system named is Raji cells. The series can be described thus: Cell proliferation assay (MTS). The conditions noted are these: 24 hrs. Type of series: cell-based, human. The protocol:
as §2

For the next series, the system named is HEK293 cells. As to the kind of experiment: Cell proliferation assay (MTS). Type of series: cell-based, human. As for the experimental part:
as §2

The next series deals with B. subtilis EC1524. As to the kind of experiment: Micro-broth dilution and drop plate antimicrobial susceptibility test. Type of series: cell-based, Bacillus subtilis. As for the experimental part: as §1
The next series deals with Mtb H37Rv ATCC27294. The series can be described thus: Minimum inhibitory concentrations testing against Mtb. Type of series: cell-based, Mycobacterium tuberculosis. The note with it: for MIC: Mycobacterium tuberculosis, 168 h.
Setting [2] is: minimal lethal dose / MIC, 800 μg mL-1 used for >400.
Where [3] appears, read: MTS cell proliferation assay, 24 hrs, highest concentration 400 µg mL-1.
Where [4] appears, read: serial 2-fold dilutions (Table S6).

≈ marks a conversion by molar mass, not a printed value. Read-outs that look alike come from different tables or passages of the source. Bounds are passed on as bounds.

As for `CCCCCCCCC(=O)N[C@H]1[C@H](O[C@H]2O[C@H](CO)[C@@H](O)[C@H](O)[C@H]2NC(=O)CCCCCCCC)O[C@H](C[C@@H](O)[C@H]2O[C@@H](n3ccc(=O)[nH]c3=O)[C@H](O)[C@@H]2O)[C@H](O)[C@@H]1O` [TUN-9,9, Di-N-nonanoyl-tunicamycin], the IC50 in the series with B. cereus ATCC11778 (Bacillus cereus, ATCC11778) is 0.072 µg/mL (≈ 0.085 µM); in the series with E. coli ATCC25922, 87.1 µg/mL (≈ 103 µM); with P. aeruginosa ATCC27853 it was 55 µg/mL (≈ 64.9 µM); in the series on S. aureus ATCC29219, 48.9 µg/mL (≈ 57.8 µM); with B. subtilis EC1524 (Bacillus subtilis, EC1524) it was 0.015 µg/mL (≈ 0.0177 µM). The MBC against B. cereus ATCC11778 (Bacillus cereus, ATCC11778) is above 25 µg/mL; against E. coli ATCC25922, 400 µg/mL (≈ 472 µM); against P. aeruginosa ATCC27853, 400 µg/mL (≈ 472 µM); with S. aureus ATCC29219 it was 400 µg/mL (≈ 472 µM); against B. subtilis EC1524 (Bacillus subtilis, EC1524) it was above 0.05 µg/mL. Further, the MIC against B. cereus ATCC11778 (Bacillus cereus, ATCC11778) came to 0.65 ± 0.23 µg/mL (≈ 0.767 µM); in the series on B. cereus ATCC11778 (Bacillus cereus, ATCC 11778 / NRRL11778, read-out: Minimal Inhibitory Concentration, B. cereus NRRL 11778) it was 0.78 µg/mL (≈ 0.921 µM); in the series on E. coli ATCC25922 it was 330 ± 120 µg/mL (≈ 390 µM); with P. aeruginosa ATCC27853, 83 ± 29 µg/mL (≈ 98 µM); against S. aureus ATCC29219, 83 ± 29 µg/mL (≈ 98 µM); with B. subtilis EC1524 (B. subtilis, micro-broth dilution, mean ± SEM (n=3)), 0.02 ± 0.01 µg/mL (≈ 0.0236 µM). Besides, the MIC was 0.02 ± 0.01 µg/mL (≈ 0.0236 µM) against B. subtilis EC1524 (Bacillus subtilis, EC1524); 0.024 µg/mL (≈ 0.0283 µM) in the series on B. subtilis EC1524 (Bacillus subtilis, EC1524, read-out: Minimal Inhibitory Concentration, B. subtilis EC1524); 0.2 ± 0.02 µg/mL (≈ 0.236 µM) in the series on Mtb H37Rv ATCC27294 (read-out: 1-week MIC in 7H9/ADC/Tw); 0.03 ± 0.001 µg/mL (≈ 0.0354 µM) in the series with Mtb H37Rv ATCC27294 (read-out: 1-week MIC in GAST/Fe); 0.2 µg/mL (≈ 0.236 µM) in the series with Mtb H37Rv ATCC27294 (read-out: Minimal Inhibitory Concentration, Mtb H37RV a); 0.03 µg/mL (≈ 0.0354 µM) with Mtb H37Rv ATCC27294 (read-out: Minimal Inhibitory Concentration, Mtb H37RV b). For the same compound, the “Relative Therapeutic Index (RTI), B. cereus NRRL 11778” value with B. cereus ATCC11778 (setting [2]) came out at 1026. The “reduction of intracellular bacterial burdens” value in series [1] (1 × MIC) was determined as 1 logs; in series [1] (10 × MIC), 2 logs. The “effect on DPAGT1 catalytic activity” value at DPAGT1 (purified DPAGT1 enzyme, Figure 6F) is reported as “negligible effect”. Moreover, the “LD50 values, HepG2” value with HepG2 cells (setting [3]) is recorded as “N/A (N/A = not available. No or low cytotoxicity observed at highest, saturating concentration tested (400 µg mL-1))”. Further, the “Minimal Lethal Dose, HepG2” value with HepG2 cells (setting [4]) is above 400 µg/mL. Also, in the series on Raji cells, the “LD50 values, Raji” value stood at 355.57 ± 194.57 µg/mL. For the same compound, the “LD50 values, HEK293” value in the series on HEK293 cells (setting [3]) is “N/A (N/A = not available. No or low cytotoxicity observed at highest, saturating concentration tested (400 µg mL-1))”. Besides, the “Minimal Lethal Dose, HEK 293” value in the series with HEK293 cells (setting [4]) is above 400 µg/mL. Besides, the “Relative Therapeutic Index (RTI), B. subtilis EC1524” value in the series with B. subtilis EC1524 (setting [2]) turned out to be 33300. The “1-week MIC in GAST/Fe” value with Mtb H37Rv ATCC27294 (Mtb H37Rv, minimal growth medium) was 0.03 ± 0.001 µg/mL. The “potency (MIC) relative to tunicamycin” value in the series on Mtb H37Rv ATCC27294 (Mtb H37Rv, more potent than tunicamycin) is reported as around 5 fold. In addition, the “Relative Therapeutic Index (RTI), Mtb H37RV a” value with Mtb H37Rv ATCC27294 (minimal lethal dose / MIC, 7H9/ADC/Tw, 800 μg mL-1 used for >400) was 4000. Also, in the series with Mtb H37Rv ATCC27294 (minimal lethal dose / MIC, GAST/Fe, 800 μg mL-1 used for >400), the “Relative Therapeutic Index (RTI), Mtb H37RV b” value was 27000.
On to “N-Acetyl-1-[P’-(3Z,7Z,11Z,15Z,19Z,23Z,27Z,31E,35E,39E,43-undecamethyl-2,6,10,14,18,22,26,30,34,38,42-tetratetracontaundecaenyl) P,P'-dihydrogen diphosphate]-α-d-glucosamine diammonium salt [GlcNAc-PP-Und]”, for which the “reduction of DPAGT1 activity on adding product analogue” value on DPAGT1 (equimolar to Dol-P and UDP-GlcNAc) is 3 fold.

These data come from publication PMC6218659, “Structures of DPAGT1 Explain Glycosylation Disease Mechanisms and Advance TB Antibiotic Design” (Cell, 2018).
